# Assay results: ChEMBL document CHEMBL6078662, “Discovery of 3-(2-aminobenzo[d]thiazol-5-yl) benzamide derivatives as potent anticancer agents via ROR1 inhibition” (Bioorg Med Chem, 2025)
# What was measured:
# A549 = assay: Antiproliferative activity against human A549 cells assessed as inhibition of cell proliferation incubated for 72 hrs by MTT assay; type: functional, cell-based; conditions: A549, 72 h
# PC-9 = assay: Antiproliferative activity against human PC-9 cells assessed as inhibition of cell proliferation incubated for 72 hrs by MTT assay; type: functional, cell-based; conditions: PC-9, 72 h
# NCI-H1975 = assay: Antiproliferative activity against human NCI-H1975 cells assessed as inhibition of cell proliferation incubated for 72 hrs by MTT assay; type: functional, cell-based; conditions: NCI-H1975, 72 h
# [1] = Cytotoxicity against human MRC5 cells assessed as inhibition of cell proliferation incubated for 72 hrs by MTT assay; type: toxicity, cell-based
# [2] = Selectivity index, ratio of IC50 for cytotoxicity against human MRC5 cells assessed as inhibition of cell proliferation to IC50 for antiproliferative activity against human NCI-H1975 cells assessed as inhibition of cell proliferation; type: toxicity, cell-based; conditions: MRC5 cells and NCI-H1975 cells, read-out: Ratio IC50
IC50 (A549) [µM],IC50 (PC-9) [µM],IC50 (NCI-H1975) [µM],SMILES,IC50 at 72 h [1] [µM],selectivity ratio [2]
> 40,11.9,> 40,O=C(NCC1CC1)c1cccc(-c2ccc3sc(NC(=O)c4ccc(F)cc4)nc3c2)c1,> 80,–
> 40,> 40,9.35,CC(=O)Nc1nc2cc(-c3cccc(C(=O)NCc4ccc(F)cc4)c3)ccc2s1,> 80,> 8.56
27.5,–,66.7,CNc1cccc(NC(=O)c2ccc(C)c(C#Cc3cnc4cccnn34)c2)c1,–,–
31.4,> 40,8.16,CCCNC(=O)c1cccc(-c2ccc3sc(NC(=O)C(C)(C)C)nc3c2)c1,> 80,> 9.8

# Continued, compound first:
SMILES,IC50 (A549) [µM],IC50 (PC-9) [µM],IC50 (NCI-H1975) [µM],IC50 at 72 h [1] [µM],selectivity ratio [2]
Cc1ccc(CNC(=O)c2cccc(-c3ccc4sc(NC(=O)C(C)(C)C)nc4c3)c2)cc1,> 40,> 40,12.4,> 80,> 6.43
COCCNC(=O)c1cccc(-c2ccc3sc(NC(=O)c4ccccc4)nc3c2)c1,> 40,> 40,17.7,> 80,> 4.52
CCC(=O)Nc1nc2cc(-c3cccc(C(=O)NCC4CC4)c3)ccc2s1,> 40,> 40,> 40,> 80,–
CCC(=O)Nc1nc2cc(-c3cccc(C(=O)NCc4ccc(OC)cc4)c3)ccc2s1,> 40,> 40,> 40,> 80,–
Cc1ccc(CNC(=O)c2cccc(-c3ccc4sc(NC(=O)C5CCCCC5)nc4c3)c2)cc1,> 40,> 40,> 40,> 80,–
CC(C)(C)C(=O)Nc1nc2cc(-c3cccc(C(=O)NCC4CC4)c3)ccc2s1,27.6,21.8,> 40,> 80,–
CC(=O)Nc1nc2cc(-c3cccc(C(=O)NCCC(C)C)c3)ccc2s1,> 40,24.7,> 40,> 80,–
